The values below come from PubChem BioAssay (NCI).

Among the test systems are A498 renal; HS 578T breast; KM12 colon; LOX IMVI melanoma; MDA-MB-435; NCI-H226 lung; SF-539 CNS; SW-620 colon; UO-31 renal; A549 NSCLC.
What all share (test): inhibition of tumour cell growth, NCI panel, 48 h

Values joined by “and” are separate entries in the source; they are usually repeats but may differ in a detail not shown here. Equal values may be shown once.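 The compound was tested at five concentrations on cells cultured in 96-well plates, with a 48-hour exposure period. GI50 = concentration required for 50% inhibition of growth. TGI is the concentration that stops growth completely.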 A value given as a limit tells only on which side of the number the result lay.

On to `O=C(c1ccc2ccccc2c1O)N1CCCCC1`, for which the TGI in the test on A498 renal, with HS 578T breast, with KM12 colon, with LOX IMVI melanoma, in the test with MDA-MB-435 and in the test on NCI-H226 lung was more than 100 µM in each case. Also, the TGI with SF-539 CNS, with SW-620 colon and with UO-31 renal was more than 100 µM throughout.
`COc1ccc(-c2[nH]ncc2-c2cc3c(c(OC)c2)OCC(=O)N3)cc1`: the GI50 is 0.17 µM in the test with A498 renal; 1440 nM in the test with A549 NSCLC; 0.298 µM with HS 578T breast; 360 nM in the test with KM12 colon; 522 nM in the test with LOX IMVI melanoma; 1.66 µM in the test on NCI-H226 lung. The GI50 with SF-539 CNS was 0.372 µM; with SW-620 colon it was 356 nM; in the test with UO-31 renal, 1440 nM. The TGI in the test with A498 renal was 0.646 µM; in the test on A549 NSCLC, more than 100 µM; with HS 578T breast, 2.24 µM; with KM12 colon, 32.8 µM; with LOX IMVI melanoma, more than 100 µM; with NCI-H226 lung, 41.5 µM. In addition, the results for the TGI with SF-539 CNS, in the test with SW-620 colon and with UO-31 renal were 2.16 µM, more than 54 µM and 53.8 µM, respectively.
On to `O=[As](O)(O)c1ccc(NCc2ccccc2)cc1`, for which the TGI in the test with A498 renal, with A549 NSCLC, with HS 578T breast, in the test on KM12 colon, in the test with LOX IMVI melanoma and in the test with MDA-MB-435 was more than 100 µM in each case. In addition, the TGI in the test with NCI-H226 lung and with UO-31 renal was more than 100 µM each time.
As to `N#Cc1cc(C#N)c(Cl)nc1N`, the TGI in the test on A549 NSCLC, in the test with HS 578T breast, in the test on KM12 colon, with LOX IMVI melanoma, in the test on MDA-MB-435 and in the test with NCI-H226 lung was more than 10 µM in each case. Besides, the TGI with SF-539 CNS, with SW-620 colon and in the test on UO-31 renal was more than 10 µM throughout.
In the case of `COc1cc(/C(Cl)=C/C=C/C(=O)c2c(C)[n+]([O-])c3ccc(Cl)cc3[n+]2[O-])cc(OC)c1OC`, the GI50 in the test with A498 renal is 15.7 µM; in the test with HS 578T breast it was 6.47 µM; in the test on KM12 colon it was 5070 nM; with LOX IMVI melanoma it was 1770 nM; in the test on MDA-MB-435, 0.673 µM; in the test with NCI-H226 lung, 13.3 µM. Further, the GI50 in the test with SF-539 CNS is 3.67 µM; with SW-620 colon, 2240 nM; with UO-31 renal, 2630 nM. Besides, the TGI was more than 50 µM with A498 renal; 35.7 µM with HS 578T breast; more than 50 µM in the test on KM12 colon; 7.54 µM in the test with LOX IMVI melanoma; 1.74 µM in the test with MDA-MB-435; more than 50 µM in the test with NCI-H226 lung. The results for the TGI with SF-539 CNS, in the test with SW-620 colon and in the test on UO-31 renal were more than 50 µM, 9.78 µM and 18.7 µM, respectively.
Regarding `CN1C(=O)c2c(ccc3c2OCO3)C2C(O)Cc3cc4c(cc3C21)OCO4` (stereo unspecified), the TGI with A498 renal is 9.29 µM; in the test with A549 NSCLC it was more than 100 µM; with HS 578T breast, more than 100 µM; in the test on KM12 colon it was 21.6 µM; with LOX IMVI melanoma, more than 100 µM; in the test on NCI-H226 lung it was 5.93 µM. Besides, the figures for the TGI in the test with SF-539 CNS, in the test on SW-620 colon and in the test with UO-31 renal were 16.8 µM, more than 100 µM and more than 100 µM, respectively.
Regarding `CC1=NN(C(=O)c2ccccc2O)C(=O)/C1=C/c1ccc([N+](=O)[O-])cc1`, the GI50 in the test on A549 NSCLC is 357 nM; in the test with KM12 colon it was 779 nM; in the test with LOX IMVI melanoma, 854 nM; in the test on NCI-H226 lung, 0.23 µM; with SF-539 CNS, 0.476 µM; in the test with SW-620 colon it was 3150 nM. Also, the GI50 with UO-31 renal was 358 nM. Also, the TGI in the test on A549 NSCLC was more than 100 µM; with HS 578T breast, more than 100 µM; in the test on KM12 colon it was more than 100 µM; in the test with LOX IMVI melanoma, more than 40.9 µM; with MDA-MB-435, more than 100 µM; with NCI-H226 lung, 7.93 µM and 25.1 µM. The TGI is 2.57 µM and 2.52 µM in the test with SF-539 CNS; more than 100 µM in the test with SW-620 colon; 1.88 µM in the test on UO-31 renal.
Turning to `O=P([O-])(O)OP(=O)([O-])O.[NH-][C@H]1CCCC[C@@H]1[NH-].[OH-].[OH-].[Pt+4]`, the GI50 with A498 renal is 21.1 µM; with HS 578T breast, 36.1 µM; in the test on KM12 colon it was more than 100000 nM; with LOX IMVI melanoma it was 33200 nM; in the test with MDA-MB-435 it was 31.2 µM; in the test with NCI-H226 lung, 23.2 µM. Besides, the GI50 was 22.3 µM with SF-539 CNS, 55800 nM in the test on SW-620 colon and 19100 nM in the test with UO-31 renal. In addition, the TGI with A498 renal was 39.9 µM; in the test with HS 578T breast, 93.1 µM; with KM12 colon, more than 100 µM; in the test on LOX IMVI melanoma, more than 100 µM; in the test with MDA-MB-435 it was more than 100 µM; in the test on NCI-H226 lung it was 55 µM. Also, the results for the TGI in the test on SF-539 CNS, in the test with SW-620 colon and in the test on UO-31 renal were 57.6 µM, more than 100 µM and 44 µM, respectively.
With `CC(C)(C)OC(=O)NCCNC1=CC(=O)c2nc3ccccc3c3ccnc1c23`, the GI50 in the test on A498 renal was 0.101 µM; in the test on A549 NSCLC, 18400 nM; with HS 578T breast it was 25.5 µM; in the test with KM12 colon, 22700 nM; in the test with MDA-MB-435 it was 15.7 µM; with NCI-H226 lung it was 21.1 µM. Moreover, the GI50 was 20.2 µM in the test on SF-539 CNS, 15100 nM in the test on SW-620 colon and 28800 nM in the test with UO-31 renal. Further, the TGI in the test on A498 renal was 29.2 µM; with A549 NSCLC it was more than 100 µM; in the test on HS 578T breast, 73.8 µM; in the test with KM12 colon, 66.6 µM; in the test on MDA-MB-435 it was 37.7 µM; in the test with NCI-H226 lung, 52.8 µM. Also, the TGI in the test on SF-539 CNS is 40.5 µM; with SW-620 colon, 37.4 µM; in the test on UO-31 renal, more than 100 µM.
Regarding `CC/C(Cc1ccccc1)=C(\c1ccc(OCCN2CCCCCC2)cc1)c1ccc(OC(=O)NCc2ccccc2)cc1`, the GI50 was 2480 nM in the test with A549 NSCLC; 2.66 µM with HS 578T breast; 1610 nM in the test on KM12 colon; 924 nM with LOX IMVI melanoma; 1.54 µM in the test on MDA-MB-435; 8.14 µM in the test on NCI-H226 lung. The GI50 in the test on SF-539 CNS was 2.43 µM; in the test with SW-620 colon, 1160 nM; in the test with UO-31 renal it was 2030 nM. In addition, the TGI in the test on A549 NSCLC stood at 8.64 µM; in the test with HS 578T breast, 11.8 µM; in the test with KM12 colon it was 5.49 µM; with LOX IMVI melanoma it was 1.75 µM; with MDA-MB-435, 5.08 µM; with NCI-H226 lung it was 17.5 µM. In addition, the TGI in the test with SF-539 CNS was determined as 8.84 µM; in the test on SW-620 colon, 2.49 µM; in the test on UO-31 renal, 7.98 µM.
